Assay results: patent US20220227849A1, “INHIBITOR OF SURFACE PROTEIN (SP-D) / SIRPA / SHP2 PATHWAY FOR USE IN THE PREVENTION AND/OR TREATMENT OF SECONDARY INFECTION” (UNIVERSITÉ DE NANTES, priority 2019, published 2022)

System: alveolar macrophages
Experiment: In vivo phagocytic assay of alveolar macrophages 7 days after aseptic lung inflammatory response (intratracheal instillation)
Conditions: wild type mice inoculated intratracheally 7 days prior; TNF-α 2.5 μg, HMGB1 10 μg; 2 hours after YFP-E. coli; FIG. 3f
Procedure: CpG 1668 (10 nM), TNF-α (2.5 μg, Myltenyi Biotec, Paris, France) and HMGB1 (10 μg, Elabscience, Tex., USA) were administrated intra-tracheally under anaesthesia. Mice were kept in a semi-recumbent position for 60 seconds after injection.
Recipient mice were γ-irradiated twice with […] and were reconstituted with 2.5-5×10^6 T cell-depleted bone marrow cells of each relevant donor strain at the indicated ratio. Neomycin (50 mg/ml) was added to the drinking water for the next 4 weeks. Chimeras were used for subsequent experiments 6 to 10 weeks after the reconstitution. Percentage of chimerism was tested during the experiments.
YFP-S. aureus (Strain RN4220 with YFP/erm2 plasmid, kindly gifted by Malone, C. L. et al. 2009 [29]), and YFP-E. coli (strain DH5alpha with p-HG-1 plasmid, kindly gifted by Janssen, W. J. et al 2011 [30]) were grown overnight in Luria broth media with erythromycin 10 μg/mL or 20 μg/mL chloramphenicol, respectively. Fluoresbrite YG carboxylate microspheres (3.64 10^9 beads, […]; Polysciences), YFP-E. coli (OD600=2-3, 75 μL) or YFP-S. aureus (OD600=5-6, 75 μL) were injected i.t. in mice. 2 hours later, the percentages of FITC or YFP^+ macrophages in the lungs were measured by flow cytometry. In vitro phagocytic assay for splenic macrophages

## TNF-α
  phagocytic function of AM after YFP-E. coli pneumonia: displayed impaired phagocytic function

B1: HMGB1: danger-associated molecular pattern protein (Elabscience) administered intra-tracheally (protein, UniProt P63158 1-215, looked up)
High mobility group protein B1: MGKGDPKKPRGKMSSYAFFVQTCREEHKKKHPDASVNFSEFSKKCSERWKTMSAKEKGKFEDMAKADKARYEREMKTYIPPKGETKKKFKDPNAPKRPPSAFFLFCSEYRPKIKGEHPGLSIGDVAKKLGEMWNNTAADDKQPYEKKAAKLKEKYEKDIAAYRAKGKPDAAKKGVVKAEKSKKKKEEEDDEEDEEDEEEEEEEEDEDEEEDDDDE
  phagocytic function of AM after YFP-E. coli pneumonia: but not those of HMGB1 treated mice, displayed impaired phagocytic function
